This note sets out measurements from ChEMBL document CHEMBL1772936, “Synthesis and biological activity of novel N6-substituted and 2,N6-disubstituted adenine ribo- and 3'-C-methyl-ribonucleosides as antitumor agents” (Eur J Med Chem, 2011).

Experiment [1] has as its system HT-29. The experiment can be described thus: Antiproliferative activity against human HT-29 cells after 72 hrs by MTS assay. The class given is functional. Particulars: HT-29, 72 h.
In experiment [2] the test system is K562. The experiment can be described thus: Antiproliferative activity against human K562 cells after 72 hrs by MTS assay. The experiment is classed as functional. The settings on record: K562, 72 h.
The test system of experiment [3] is HeLa. The experiment can be described thus: Antiproliferative activity against human HeLa cells after 72 hrs by MTS assay. The class given is functional. In general terms: Formazan colour is commonly taken as a measure of viable cells.
For experiment [4], the system named is MCF7. The experiment can be described thus: Antiproliferative activity against human MCF7 cells after 72 hrs by MTS assay. The experiment is classed as functional. Particulars: MCF7, 72 h.
Experiment [5] deals with Caco-2. The experiment can be described thus: Antiproliferative activity against human Caco2 cells after 72 hrs by MTS assay. The experiment is classed as functional. Particulars: Caco-2, 72 h.
Experiment [6] relates to K562. The experiment can be described thus: Antiproliferative activity against doxorubicin-sensitive human K562 cells after 72 hrs by MTS assay. The experiment is classed as functional. The settings on record: K562, 72 h, read-out: GI100.
The target in experiment [7] is T1, Ribonucleoside-diphosphate reductase RR1 (Homo sapiens, UniProt P23921+P31350+Q7LG56).
T1 sequence (P23921 whole entry): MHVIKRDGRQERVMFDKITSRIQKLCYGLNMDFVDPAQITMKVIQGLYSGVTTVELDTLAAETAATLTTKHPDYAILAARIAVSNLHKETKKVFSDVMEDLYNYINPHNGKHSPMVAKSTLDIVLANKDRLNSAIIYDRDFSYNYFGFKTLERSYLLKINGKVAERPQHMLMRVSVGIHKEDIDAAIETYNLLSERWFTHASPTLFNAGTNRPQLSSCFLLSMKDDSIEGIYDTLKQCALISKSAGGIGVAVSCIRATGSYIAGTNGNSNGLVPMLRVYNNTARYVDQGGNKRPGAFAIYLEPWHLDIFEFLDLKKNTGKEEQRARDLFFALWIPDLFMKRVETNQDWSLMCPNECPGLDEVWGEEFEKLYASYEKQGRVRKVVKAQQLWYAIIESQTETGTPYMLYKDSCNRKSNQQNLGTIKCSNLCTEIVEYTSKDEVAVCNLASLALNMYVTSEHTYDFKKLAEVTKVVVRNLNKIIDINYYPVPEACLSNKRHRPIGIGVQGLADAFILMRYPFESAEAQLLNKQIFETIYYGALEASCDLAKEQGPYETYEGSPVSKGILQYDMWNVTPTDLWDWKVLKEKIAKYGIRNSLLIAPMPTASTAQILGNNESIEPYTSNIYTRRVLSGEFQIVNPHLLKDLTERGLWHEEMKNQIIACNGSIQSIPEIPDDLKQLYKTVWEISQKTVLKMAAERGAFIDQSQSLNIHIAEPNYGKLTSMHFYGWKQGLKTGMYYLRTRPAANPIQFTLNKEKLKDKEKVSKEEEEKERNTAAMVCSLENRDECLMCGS
T1 sequence (Q7LG56 whole entry): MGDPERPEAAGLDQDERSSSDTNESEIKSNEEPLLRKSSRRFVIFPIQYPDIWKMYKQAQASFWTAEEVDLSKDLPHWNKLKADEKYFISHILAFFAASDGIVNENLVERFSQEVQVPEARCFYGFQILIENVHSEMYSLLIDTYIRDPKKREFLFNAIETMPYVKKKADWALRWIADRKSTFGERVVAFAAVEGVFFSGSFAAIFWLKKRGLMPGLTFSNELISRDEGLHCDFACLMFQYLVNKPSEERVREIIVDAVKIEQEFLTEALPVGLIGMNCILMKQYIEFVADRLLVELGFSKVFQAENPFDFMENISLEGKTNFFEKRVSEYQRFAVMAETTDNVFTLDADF
T1 sequence (P31350 whole entry): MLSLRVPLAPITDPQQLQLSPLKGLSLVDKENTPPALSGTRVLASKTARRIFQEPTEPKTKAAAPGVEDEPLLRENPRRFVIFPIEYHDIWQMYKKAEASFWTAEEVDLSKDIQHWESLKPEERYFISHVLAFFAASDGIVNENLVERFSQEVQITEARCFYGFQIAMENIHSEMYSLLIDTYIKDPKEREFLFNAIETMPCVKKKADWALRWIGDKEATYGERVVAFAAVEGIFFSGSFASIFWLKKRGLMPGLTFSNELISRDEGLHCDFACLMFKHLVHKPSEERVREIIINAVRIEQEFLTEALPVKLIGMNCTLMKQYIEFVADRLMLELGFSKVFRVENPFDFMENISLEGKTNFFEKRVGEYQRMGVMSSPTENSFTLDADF
Put plainly: (§1) Inhibition of human recombinant ribonucleotide reductase M2/M1 expressed in Escherichia coli BL21 (DE3) after 30 mins by [3H]CDP reduction method.

Experiment [8] addresses T2, Ribonucleoside-diphosphate reductase RR1 (Homo sapiens) (UniProt P23921+Q7LG56+P31350). Described as §1.
Experiment [9] addresses T1, Ribonucleoside-diphosphate reductase RR1. The experiment can be described thus: (§2) Inhibition of human recombinant ribonucleotide reductase p53R2/M1 expressed in Escherichia coli BL21 (DE3) after 30 mins by [3H]CDP reduction method.
Experiment [10] has as its target T2, Ribonucleoside-diphosphate reductase RR1 (Homo sapiens). The description is as §2.

Some results are limits rather than exact numbers.

Usually GI50 stands for the concentration that inhibits growth by half. A lower GI50 goes with more potent growth inhibition. For the compound `CON(C)c1ncnc2c1ncn2[C@@H]1O[C@H](CO)[C@@](C)(O)[C@H]1O`, the GI50 in [1], in experiment [2], in experiment [3], in experiment [4] and in experiment [5] was more than 100 µM in each case.

As to `OC[C@H]1O[C@@H](n2cnc3/c(=N\O)[nH]cnc32)[C@H](O)[C@@H]1O`, the GI50 in [1] was 15 µM; in experiment [2], 31 µM; in [3], 3.4 µM; in experiment [4], more than 100 µM; in experiment [5], more than 100 µM.

As to `C[C@@]1(O)[C@@H](CO)O[C@@H](n2cnc3c(NN)nc(N)nc32)[C@@H]1O`, the GI50 is more than 100 µM in experiment [1]; 91 µM in [2]; more than 100 µM in experiment [3]; more than 100 µM in [4]; more than 100 µM in experiment [5].

On to `NNc1nc(Cl)nc2c1ncn2[C@@H]1O[C@H](CO)[C@@H](O)[C@H]1O`, for which the GI50 in [1] is 86.2 µM; in experiment [2], 87.1 µM; in [3] it was 86 µM; in [4], 86.2 µM; in experiment [5], more than 100 µM.

Take `C[C@@]1(O)[C@@H](CO)O[C@@H](n2cnc3c(NN)ncnc32)[C@@H]1O`: the GI50 in experiment [1], in [2], in [3], in experiment [4] and in experiment [5] was more than 100 µM in each case.

For the compound `CON(C)c1nc(N)nc2c1ncn2[C@@H]1O[C@H](CO)[C@@](C)(O)[C@H]1O`, the GI50 in experiment [1], in [2], in experiment [3], in [4] and in experiment [5] was more than 100 µM each time.

Regarding `C[C@@]1(O)[C@@H](CO)O[C@@H](n2cnc3c(N)ncnc32)[C@@H]1O`, the GI50 came out at 26.1 µM in [1]; 9.4 µM in experiment [2]; 23.3 µM in experiment [3]; 22.4 µM in [4]; 24.3 µM in experiment [5].

Consider `CO/N=c1/[nH]cnc2c1ncn2[C@@H]1O[C@H](CO)[C@@H](O)[C@H]1O`, for which the GI50 in experiment [1], in [2], in experiment [3], in [4] and in experiment [5] was more than 100 µM throughout.

With `CONc1nc(N)nc2c1ncn2[C@@H]1O[C@H](CO)[C@@](C)(O)[C@H]1O`, the GI50 in [1], in experiment [2], in [3], in experiment [4] and in experiment [5] was more than 100 µM in each case.

Regarding `CONc1ncnc2c1ncn2[C@@H]1O[C@H](CO)[C@@](C)(O)[C@H]1O`, the GI50 in experiment [1], in experiment [2], in experiment [3], in [4] and in [5] was more than 100 µM throughout.

As for `CON(C)c1ncnc2c1ncn2[C@@H]1O[C@H](CO)[C@@H](O)[C@H]1O`, the GI50 in experiment [1] is more than 100 µM; in experiment [2], more than 100 µM; in experiment [3], more than 100 µM; in experiment [4] it was 46.8 µM; in [5], 84.1 µM.

The IC50 is the midpoint of a concentration-inhibition curve. `NNc1ncnc2c1ncn2[C@@H]1O[C@H](CO)[C@@H](O)[C@H]1O`: the GI50 in experiment [1] was found to be 1.44 µM; in experiment [2], 0.61 µM; in experiment [3], 0.52 µM; in experiment [4], 0.35 µM; in experiment [5], 1.03 µM. Moreover, the TGI was found to be 8.2 µM in [1] (read-out: GI100); 2 µM in experiment [6]; 5 µM in [3] (read-out: GI100); 6.1 µM in experiment [4] (read-out: GI100); 5 µM in experiment [5] (read-out: GI100). Moreover, the results for the IC50 in experiment [7] and in experiment [9] were 232 µM and 244 µM, respectively. Moreover, the inhibition result in experiment [8] and in experiment [10] was “Dose-dependent effect” in each case.

With `Nc1nc2c(ncn2[C@@H]2O[C@H](CO)[C@@H](O)[C@H]2O)/c(=N\O)[nH]1`, the GI50 was more than 100 µM in experiment [1]; 99 µM in experiment [2]; more than 100 µM in experiment [3]; more than 100 µM in [4]; more than 100 µM in [5].

In the case of `C[C@@]1(O)[C@@H](CO)O[C@@H](n2cnc3c(NO)ncnc32)[C@@H]1O`, the GI50 in [1], in experiment [2], in experiment [3], in [4] and in experiment [5] was more than 100 µM in each case.

With `C[C@@]1(O)[C@@H](CO)O[C@@H](n2cnc3c(NO)nc(N)nc32)[C@@H]1O`, the GI50 in experiment [1] was more than 100 µM; in experiment [2], 94 µM; in experiment [3], more than 100 µM; in [4], more than 100 µM; in experiment [5], more than 100 µM.

`CO/N=c1/[nH]c(N)nc2c1ncn2[C@@H]1O[C@H](CO)[C@@H](O)[C@H]1O`: the GI50 was more than 100 µM in [1]; 49 µM in experiment [2]; more than 100 µM in experiment [3]; 58 µM in experiment [4]; more than 100 µM in [5].

In the case of `NNc1nc(N)nc2c1ncn2[C@@H]1O[C@H](CO)[C@@H](O)[C@H]1O`, the GI50 in experiment [1], in [2], in [3], in experiment [4] and in experiment [5] was more than 100 µM throughout.

As to `NNc1ncnc2c1ncn2[C@H]1C[C@H](O)[C@@H](CO)O1`, the GI50 in experiment [1] was 18 µM; in experiment [2] it was 12 µM; in experiment [3], 16 µM; in experiment [4], 7.9 µM; in experiment [5], more than 100 µM.

Turning to `NNc1nc(NN)c2ncn([C@@H]3O[C@H](CO)[C@@H](O)[C@H]3O)c2n1`, the GI50 is 61.4 µM in [1]; 30.7 µM in [2]; 7.9 µM in experiment [3]; 20.7 µM in [4]; 18.8 µM in [5].
